Common to all, as to assay type: cell-based, human
In assay [1] the test system is SLC16-dependent pyruvate transport. The assay is described as follows: Pyronic FRET pyruvate transport assay in 293T cells. Particulars: 293T cells pre-incubated with inhibitor; 0.4 mM pyruvate, pH 7.4. An excerpt: To obtain “proof of concept” for monocarboxylate transport by SLC16A11, pyruvate was focused on as the metabolite transported by all four SLC16 category I proteins, whose real-time transport in mammalian cells can be readily studied by the pyruvate FRET sensor, pyronic. 293T cells were co-transfected with pyronic and either empty vector control or SLC16A11-V5, which increases SLC16A11 levels without affecting other category I family members (FIG. 3M). Cells were perfused in physiological pH 7.4 Ringer's solution and 0.4 mM pyruvate was added at the indicated time point (FIG. 3D), resulting in an increase of the fluorescence signal, indicative of pyruvate uptake. […] Thus, this is consistent with the increase in fluorescence resulting from SLC16-dependent pyruvate transport.
Cells were transferred onto glass cover slips in 60 mm tissue culture dishes 72 hr prior to the experiment. […] Cytoplasmic pH changes, indicative of H^+ transport, were determined in cells loaded with 1 μM BCECF-AM (Rink, T. J. et al., 1982, J Cell Biol, 95:189-196), a pH sensitive dye. […] Rates of proton influx and efflux were calculated as the slopes immediately following addition and withdrawal of pyruvate, after correcting for baseline drift. Baseline drift due to fluorescence bleaching is calculated during the initial 50 seconds of each trace prior to addition of pyruvate. […]

Another assay deals with SLC16A11 (A11). Description: ddPCR based screening assay for modulators of SLC16A11 expression (Z′). The conditions noted are these: SNU 761 cells; compound as positive control. An excerpt: As detailed herein above, SLC16A11 (A11) belongs to a family of monocarboxylate transporters. Expression of A11 was studied in SNU 761 cell lines. These liver cancer cells are ideal for studying SLC16A11 expression because A11 is expressed in higher quantity in liver cells, although expression of the gene in all tissues is extremely low. The 5 SNP risk haplotype causes lowered expression and interferes with protein-protein interactions between A11 and a cofactor protein, indicating loss of function. Therefore, increasing A11 expression in individuals with the risk haplotype is likely beneficial.
The quality of an assay can be quantified by Z′, a measure of how well the assay can differentiate between the positive and negative controls. Using the formula: […]
First the cells were treated with inhibitor compounds, their RNA was extracted, and that RNA was used as a template to create DNA. Then, the DNA was quantified using droplet digital PCR (ddPCR), analyzed and quantified using QuantaSoft™ (BioRad). […]
From the QuantaSoft scoring of each droplet, the means and standard deviations of SLC16A11 expression levels was determined in response to compound treatment. […] Points in light gray had the gene of interest and were scored as positive (FIG. 17C). SLC16A11 was scored in the graph. […]

Assay [2] has as its system SLC16A1. The assay is described as follows: Compound treatment, SLC16A1 expression by ddPCR in SNU761 cells. The conditions noted are these: 10 μM for 24 hours. On the procedure: (§1) FIGS. 14A-14D provide graphs showing that mTOR inhibitors increase SLC16A11, but not SLC16A1 transcript levels. […] SLC16A11 (FIGS. 14A and 14B) and SLC16A1 (FIGS. 14C and 14D) expression was then assessed using droplet digital PCR (ddPCR). Bar plots depict relative fold-changes with respect to DMSO and error bars and standard deviations. Expression is normalized to housekeeping genes TBP or HPRT1.
(§2) A small number of the compounds that made the strongest positive connections to the SLC16A11 gene expression signature were selected and tested. […] Methotrexate was also included, which had been annotated as a dihydrofolate reductase inhibitor. SNU761 cells (derived from a human hepatocellular carcinoma) and NCIH716 cells (derived from a human cecum adenocarcinoma), which both express SLC16A11, were treated with the compounds. […]
(§3) RNA was DNase treated and converted into cDNA using the High-Capacity RNA-to-cDNA kit (Thermo Fisher Scientific). The following FAM-labeled TaqMan Real-Time PCR assays (Thermo Fisher Scientific) were used to quantify gene expression: SLC16A11 (Hs00601062_g1), SLC16A13 (Hs00416832_m1), SLC16A1 (Hs01560299_m1). […] Droplets were generated and analyzed using a QX200 Droplet Generator and Reader system (BioRad). Data was extracted using QuantaSoft (BioRad) and analyzed using Microsoft Excel.

Assay [3] relates to SLC16A11. The assay is described as follows: Compound treatment, SLC16A11 expression by ddPCR in SNU761 cells. Particulars: SNU761 cells; for SLC16A11 transcript levels, compound treated compared to DMSO treated cells: same concentrations and treatment times as LINCS, ddPCR. On the procedure:
(§4) A small number of the compounds that made the strongest positive connections to the SLC16A11 gene expression signature were selected and tested. […] Methotrexate was also included, which had been annotated as a dihydrofolate reductase inhibitor. SNU761 cells (derived from a human hepatocellular carcinoma) and NCIH716 cells (derived from a human cecum adenocarcinoma), which both express SLC16A11, were treated with the compounds. The same compound concentrations and treatment times were used as in the LINCS dataset experiments. […] For normalization, a different housekeeper gene, HPRT1, was used and obtained similar results with the mTOR inhibitors (FIGS. 14A and 14B).
From the total list of compounds, 59 readily available compounds were selected from the 79 compounds with the largest connectivity scores to the query signature and 20 middle compounds with connectivity scores centered on 0 (FIG. 15A) and then treated SNU761 cells at the same doses and treatment times as were used in the LINCS dataset. It was expected that the top compounds would be enriched for compounds that increased SLC16A11 expression. […] The results were aligned with the expectations (FIG. 15B). Hierarchical clustering of the SLC16 expression profiles generated by the compound treatments are shown by the heat map in FIG. 15C.
(§5) SNU761 (human hepatocellular carcinoma) and NCIH716 (human cecum adenocarcinoma) were cultured in RPMI Medium 1640 supplemented with 10% Fetal Bovine Serum (FBS), 100 μg/ml Streptomycin and 100 U/ml Penicillin. Cells were grown in a humidified CO2 incubator, at 37° C.
(§6) For the unbiased approach taken to investigate the compounds that connected to the SLC16A11 gene expression signature, compounds were obtained from compound management at the Broad Institute.
(§7) SNU761 and NCIH716 cells were plated into 96 well plates at a density of 20,000 cells per well. Hepatocytes were plated into collagen coated 96 well plates (Corning, 354408) at a density of 50,000 cells per well. After 24 hours, cells were treated with compounds at a final concentration of 10 μM or vehicle control for the appropriate amount of time.
At the time of collection, cells in 96 well plates were lysed by directly adding 50 μL of RLT buffer (Qiagen). 75 μL of AMPure XP beads, diluted by a factor of 5 in polyethylene glycol, were then added to bind nucleic acids. One wash with polyethylene glycol was then performed. DNase treatment (Qiagen) was carried out according to the manufacturer's protocol in a final volume of 50 μL. 100 μL of polyethylene glycol was added after the DNase treatment to crowd nucleic acids back onto the beads. Two washes with 80% ethanol were performed and residual ethanol was removed. RNA was then eluted in water.
RNA was DNase treated and converted into cDNA using the High-Capacity RNA-to-cDNA kit (Thermo Fisher Scientific). The following FAM-labeled TaqMan Real-Time PCR assays (Thermo Fisher Scientific) were used to quantify gene expression: SLC16A11 (Hs00601062_g1), SLC16A13 (Hs00416832_m1), SLC16A1 (Hs01560299_m1). The VIC-labeled TaqMan Real-Time assays TBP (Hs00427620_m1) or HPRT1 (Hs02800695_m1) were used for normalization. Droplets were generated and analyzed using a QX200 Droplet Generator and Reader system (BioRad). Data was extracted using QuantaSoft (BioRad) and analyzed using Microsoft Excel.

Assay [4] relates to SLC16A1. Description: Compound treatment, SLC16A1 expression by ddPCR in NCIH716 cells. Particulars: 10 μM for 24 hours. As for the experimental part: as §1, §2, §3
Assay [5] relates to SLC16A11. Description: Compound treatment, SLC16A11 expression by ddPCR in NCIH716 cells. The conditions noted are these: same concentrations and treatment times as LINCS. As for the experimental part: as §4, §5, §6, §7
At the time of collection, cells in 96 well plates were lysed by directly adding 50 μL of RLT buffer (Qiagen). […]
as §3

Turning to `Cc1n[nH]c(C)c1Cc1sc2c(c1C(=O)N1C[C@H](O)CO1)c(=O)n(C)c(=O)n2CC(C)C` [AR-C155858], the “pyronic fluorescence signal (pyruvate uptake)” value in assay [1] is given as “completely diminished”.
In the case of `COc1ccc(-c2ccc3c(N4CCOCC4)nc(N4C[C@@H](C)O[C@@H](C)C4)nc3n2)cc1CO` [KU-0063794, [5-[2-(2,6-dimethylmorpholin-4-yl)-4-morpholin-4-ylpyrido[2,3-d]pyrimidin-7-yl]-2-methoxyphenyl]methanol], the “A11 expression in manual ddPCR assay” value in the assay with SLC16A11 (A11) is “increased”. For the same compound, the “SLC16A1 expression with respect to DMSO” value with SLC16A1 [2] and in the assay on SLC16A1 [4] was “slight decrease” throughout. For the same compound, the “SLC16A11 transcript levels, compound treated compared to DMSO treated cells” value with SLC16A11 [3] and with SLC16A11 [5] was “about 3 fold” in each case. Besides, the “avg_fc (SLC16A11 expression, compound treated vs DMSO treated cells)” value in the assay on SLC16A11 [3] (same doses and treatment times as in the LINCS dataset) worked out at 4.009. For the same compound, the “increase in SLC16A11 expression, compound treated compared to DMSO treated cells” value in the assay with SLC16A11 [3] (unbiased test of 59 top and 20 middle LINCS compounds, LINCS doses and times) is listed as approximately 4 fold.
For the compound `CN(Cc1cnc2nc(N)nc(N)c2n1)c1ccc(C(=O)N[C@@H](CCC(=O)O)C(=O)O)cc1` [methotrexate, reference compound], the “SLC16A11 transcript levels, compound treated compared to DMSO treated cells” value in the assay with SLC16A11 [3] and with SLC16A11 [5] was “did not alter” throughout.

These data come from patent US11471462B2, “Compositions and methods for detecting and treating diabetes” (THE BROAD INSTITUTE, INC., priority 2016, dated 2022).
